Data: patent US7655801B2, “Substituted carbamic acid quinolin-6-yl esters useful as acetylcholinesterase inhibitors” (priority 2004, dated 2010)

Assays:
[1] = tested on: scopolamine induced deficit (dementia/amnesia) in mice; test: Scopolamine induced amnesia, single trial passive avoidance test; type: in vivo; conditions: test compounds 20 μmol/kg orally, donepezil 10 mg/kg po; for % Learning ([2nd Trial − 1st trial/1st trial] × 100): scopolamine group 33.6, trained control 274.9; for change in vivo at 20 µmol/kg: Mus musculus, read-out: % Improvement in Learning (% Learning in treated gp − % Learning in Scopolamine gp)
Method: Single trial passive avoidance is widely used as experimental test to assess learning memory functions in rodents.
Passive Avoidance Test (in vivo): Study was conducted in adult Swiss male mice of 3-4 months (wt. 20-25 g) which were kept in standard housing condition with 12 h light and dark cycle. Food and water were available ad libitum. […] Passive avoidance test was studied by a computerized shuttle box (Columbus Instruments, Ohio, USA) provided with a software program PACS 30. The shuttle box comprises of two compartments, isolated by an automated door. […] Each mouse was placed in the bright compartment and on transfer into the dark compartment it was given an electric shock (0.5 mA for 5 s) through floor grid. Transfer of mice from bright to dark compartment was recorded as transfer latency time (TLT) in seconds. TLT was recorded in control and treated groups (1st Trial, acquisition) and then after 24 hours (2nd Trial, retention). An increase in the TLT on 2nd Trial (retention) as compared to 1st Trial (acquisition) was taken as the criterion for successful learning and memory (cognitive activity).
Scopolamine induced deficit (Dementia): Scopolamine a muscarinic antagonist, known to produce impairment in cognitive functions (dementia) in human as well as in experimental animals, was used to produce deficit (no significant increase on 2nd trial) in passive avoidance learning. Scopolamine was administered 5 min prior to 1st trial. Reversal of scopolamine induced deficit i.e. significant increase in 2nd trial by test substance indicates potential anti-dementia activity. […].
Drug administration: Scopolamine was administered 5 min prior to 1st trial in test group. Each test compound was administered orally in dose of 20 μmol/kg (1% aq. suspension in gum acacia) 1 hour prior to 2nd trial in scopolamine treated mice (n=5). Scopolamine control group received 1 ml/kg of vehicle (1% aq. suspension in gum acacia) orally. […] Donepezil (10 mg/kg, po, as 1% aqueous suspension in gum acacia) was used as standard drug and given 1 hour prior to 2nd trial in scopolamine treated mice.
Statistical analysis: Mean values and standard error (S.E.) of mean were calculated for TLT and specific activity of AChE in the different regions of brain samples of each group. The significance of difference between the values of AChe activity and TLT between the groups was determined by one-way ANOVA test that followed by Dunnett's test.

AChE = target: T1, AChE (Rattus norvegicus, UniProt P37136); test: Inhibitive effect on acetylcholinesterase activity (Ellman method, rat brain homogenate supernatant); type: biochemical; conditions: for Cholinesterase Enzyme Activity in presence of active drug: control AChE activity 0.014446; for % Cholinesterase Enzyme Activity in presence of active drug: relative to control AChE activity
T1 construct: Aliquots of this supernatant was diluted in the ratio of 1:10 and used as a source of enzyme for the assay; from tissue; host or cells: whole brain of adult male SD rats; 10% homogenate with Triton X-100, 100,000 x g supernatant
T1 sequence (P37136 32-614): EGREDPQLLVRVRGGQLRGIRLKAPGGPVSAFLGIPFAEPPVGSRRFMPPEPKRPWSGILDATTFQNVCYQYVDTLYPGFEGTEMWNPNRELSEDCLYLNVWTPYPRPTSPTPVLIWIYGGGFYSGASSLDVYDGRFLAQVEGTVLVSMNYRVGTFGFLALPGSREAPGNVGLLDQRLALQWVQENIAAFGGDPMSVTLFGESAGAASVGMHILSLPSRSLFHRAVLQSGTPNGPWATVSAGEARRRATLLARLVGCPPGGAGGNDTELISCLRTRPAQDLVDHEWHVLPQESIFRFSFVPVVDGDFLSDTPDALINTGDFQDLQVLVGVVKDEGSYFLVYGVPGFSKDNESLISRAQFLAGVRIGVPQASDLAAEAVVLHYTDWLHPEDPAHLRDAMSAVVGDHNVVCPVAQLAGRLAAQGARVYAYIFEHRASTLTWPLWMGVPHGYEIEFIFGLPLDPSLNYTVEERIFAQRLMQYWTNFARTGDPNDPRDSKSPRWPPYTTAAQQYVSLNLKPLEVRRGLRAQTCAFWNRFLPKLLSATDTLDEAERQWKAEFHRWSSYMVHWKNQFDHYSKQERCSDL
Method: The study was conducted in adult SD male rats (200-250 g) Rats were perfused under mild ether anesthesia through heart with ice cooled normal saline (0.9% NaCl) to reduce blood-borne cholinesterase from brain. After perfusion whole brain was taken out. 10% (w/v) homogenate of brain was prepared first by homogenizing in Ultra-Turrax T25 homogenizer at a speed of 9500 rpm thrice giving intervals for few seconds in between the runs, with sodium phosphate buffer (30 mmol/lit, pH 7.0). Sodium phosphate buffer was taken in a volume half to the final volume required for 10% homogenate. 1% Triton X-100 (1% w/v in 30 mmol/lit. sodium phosphate buffer, pH 7.0) is then added in a volume to make the final volume for 10% homogenate, slowly while stirring the homogenate on ice.
Kinetic profile of the enzyme activity was studied spectrophotometrically at 412 nm at an interval of 15 s. Assay for each sample was run in duplicate and each experiment was performed thrice.
[…] Tacrine (1 μmol) was used as standard AChe inhibitor (standard control). The AChe inhibitory activity was calculated on the basis of % decrease change from control values i.e. AChe acivity without incubation with any standard or test drug.

[2] = scopolamine treated mice, 1 hour prior to 2nd trial

CCCCCCCNC(=O)Oc1ccc2ncccc2c1 [1b, Heptyl-Carbamic Acid quinolin-6-yl ester]
2nd TRIAL (retention, after 24 hours) transfer latency time (TLT) [1, 2]: 238 s
% Learning ([2nd Trial − 1st trial/1st trial] × 100) ([1]; scopolamine treated mice): 140.4%
% Improvement in Learning (% Learning in treated gp − % Learning in Scopolamine gp) [1]: 106.8%

O=C(Nc1ccccc1Cl)Oc1ccc2ncccc2c1 [1c]
1st TRIAL (acquisition) transfer latency time (TLT) [1, 2]: 89.6 s
2nd TRIAL (retention, after 24 hours) transfer latency time (TLT) [1, 2]: 230 s
% Learning ([2nd Trial − 1st trial/1st trial] × 100) ([1]; scopolamine treated mice): 156.7%
% Improvement in Learning (% Learning in treated gp − % Learning in Scopolamine gp) [1]: 123.09%

O=C(Nc1cccc(Br)c1)Oc1ccc2c(c1)CCCN2 [2c, (3-Bromo-phenyl)-carbamic acid 1,2,3,4-tetrahydro-quinolin-6-yl ester]
2nd TRIAL (retention, after 24 hours) transfer latency time (TLT) [1, 2]: 195 s
% Learning ([2nd Trial − 1st trial/1st trial] × 100) ([1]; scopolamine treated mice): 101%
% Improvement in Learning (% Learning in treated gp − % Learning in Scopolamine gp) [1]: 67.4%

CCCCCCNC(=O)Oc1ccc2c(c1)CCCN2Cc1ccccc1 [2h, Hexyl-carbamic acid 1-benzyl-1,2,3,4-tetrahydro-quinolin-6-yl ester]
2nd TRIAL (retention, after 24 hours) transfer latency time (TLT) [1, 2]: 205 s
% Learning ([2nd Trial − 1st trial/1st trial] × 100) ([1]; scopolamine treated mice): 122.8%
% Improvement in Learning (% Learning in treated gp − % Learning in Scopolamine gp) [1]: 89.2%

O=C(Nc1ccccc1Cl)Oc1ccc2c(c1)CCCN2Cc1ccccc1 [2i, (2-Chloro-phenyl)carbamic acid 1-benzyl-1,2,3,4-tetrahydro-quinolin-6 yl ester]
Cholinesterase Enzyme Activity in presence of active drug (AChE; drug conc. 0.1 μm): 0.01351 μmol/mg of protein/min
% Cholinesterase Enzyme Activity in presence of active drug (AChE; drug conc. 0.1 μm): 93.54%
Cholinesterase Enzyme Activity in presence of active drug (AChE; drug conc. 0.3 μm): 0.01211 μmol/mg of protein/min
% Cholinesterase Enzyme Activity in presence of active drug (AChE; drug conc. 0.3 μm): 83.87%
Cholinesterase Enzyme Activity in presence of active drug (AChE; drug conc. 1 μm): 0.01071 μmol/mg of protein/min
% Cholinesterase Enzyme Activity in presence of active drug (AChE; drug conc. 1 μm): 74.19%
Cholinesterase Enzyme Activity in presence of active drug (AChE; drug conc. 3 μm): 0.007456 μmol/mg of protein/min
Cholinesterase Enzyme Activity in presence of active drug (AChE; drug conc. 10 μm): 0.001864 μmol/mg of protein/min
% Cholinesterase Enzyme Activity in presence of active drug (AChE; drug conc. 10 μm): 12.90%
% Cholinesterase Enzyme Activity in presence of active drug (AChE): 51.61%
2nd TRIAL (retention, after 24 hours) transfer latency time (TLT) [1, 2]: 186.4 s
% Learning ([2nd Trial − 1st trial/1st trial] × 100) ([1]; scopolamine treated mice): 123.2%
% Improvement in Learning (% Learning in treated gp − % Learning in Scopolamine gp) [1]: 89.6%

CN1CCCc2cc(OC(=O)Nc3ccc(Cl)c(C(F)(F)F)c3)ccc21 [2q, (4-Chloro-3-trifluoromethyl-phenyl)-carbamic acid 1-methyl-1,2,3,4-tetrahydro-quinolin-6-yl ester]
change in vivo at 20 µmol/kg ([1]; scopolamine treated mice): 76%
2nd TRIAL (retention, after 24 hours) transfer latency time (TLT) [1, 2]: 218 s
% Learning ([2nd Trial − 1st trial/1st trial] × 100) ([1]; scopolamine treated mice): 109%

CN1CCCc2cc(OC(=O)Nc3ccc(Br)cc3)ccc21 [2r, (4-bromophenyl)carbamic acid 1-methyl-1,2,3,4-tetrahydroquinolin-6-yl ester]
change in vivo at 20 µmol/kg ([1]; scopolamine treated mice): 62%
2nd TRIAL (retention, after 24 hours) transfer latency time (TLT) [1, 2]: 242 s
% Learning ([2nd Trial − 1st trial/1st trial] × 100) ([1]; scopolamine treated mice): 95.6%

COc1cc2c(cc1OC)C(=O)C(CC1CCN(Cc3ccccc3)CC1)C2 (centres unmarked) [DONEPEZIL, donepezil, reference compound]
2nd TRIAL (retention, after 24 hours) transfer latency time (TLT) [1, 2]: 245 s
% Learning ([2nd Trial − 1st trial/1st trial] × 100) ([1]; scopolamine treated mice): 168%
% Improvement in Learning (% Learning in treated gp − % Learning in Scopolamine gp) [1]: 134.4%
